Earlier results, collected in Sander's compilation of Henry's law constants (doi:10.1016/j.chroma.2007.11.025).

Test: Henry solubility constant Hcp at 298.15 K (mol/(m3 Pa))
Conditions: reference: Sieg et al. (2008); cited value

| Compound | Henry solubility constant Hcp |
| --- | --- |
| Cc1ccccc1C [1,2-dimethylbenzene] | 0.0019 |
| Cc1cccc(C)c1 [1,3-dimethylbenzene] | 0.0014 |
| Cc1ccc(C)cc1 [1,4-dimethylbenzene] | 0.0014 |
| ClCCBr [1-chloro-2-bromoethane] | 0.011 |
| Cc1ccccc1 [methylbenzene] | 0.0015 |

The next lines start with the values.

| Henry solubility constant Hcp | Compound |
| --- | --- |
| 0.0018 | c1ccccc1 [benzene] |
| 0.0055 | CCCCCCCCCC=O [decanal] |
| 0.0013 | CCc1ccccc1 [ethylbenzene] |
| 0.0016 | Fc1ccccc1 [fluorobenzene] |
| 0.037 | CCCCCCC=O [heptanal] |
| 0.014 | CCCCCCCCC=O [nonanal] |
| 0.019 | CCCCCCCC=O [octanal] |
